Reference: ChEMBL document CHEMBL2346657, “Synthesis of novel 2-amino-4-(5'-substituted 2'-phenyl-1H-indol-3'-yl)-6-aryl-4H-pyran-3-carbonitrile derivatives as antimicrobial and antioxidant agents” (2013)
Calls of active or inactive are those of the source. The rule behind the calls is not given here.

test system: Staphylococcus aureus; assay: Antimicrobial activity against Staphylococcus aureus ATCC 29513 at 750 ug/ml after 24 hrs by cup plate method; assay type: functional; details: ATCC 29513, 24 h, read-out: IZ

Row | SMILES | zone of inhibition at 750 µg/mL
1 | Nc1n[nH]c2c1C(c1c(-c3ccccc3)[nH]c3ccc(Cl)cc13)C=C(c1ccccc1)O2 (stereo not given) | 8 mm
2 | Cc1ccc(C2=CC(c3c(-c4ccccc4)[nH]c4ccc(Cl)cc34)C(C#N)=C(N)O2)cc1 (stereo not given) | 5 mm

test system: Escherichia coli; assay: Antimicrobial activity against Escherichia coli MTCC 723 at 1000 ug/ml after 24 hrs by cup plate method; assay type: functional; details: MTCC 723, 24 h, read-out: IZ

Row | SMILES | zone of inhibition at 1000 µg/mL
3 | Nc1n[nH]c2c1C(c1c(-c3ccccc3)[nH]c3ccc(Cl)cc13)C=C(c1ccccc1)O2 (stereo not given) | 9 mm
4 | Cc1ccc(C2=CC(c3c(-c4ccccc4)[nH]c4ccc(Cl)cc34)C(C#N)=C(N)O2)cc1 (stereo not given) | 10 mm

test system: Pseudomonas aeruginosa; assay: Antimicrobial activity against Pseudomonas aeruginosa MTCC 1688 at 1000 ug/ml after 24 hrs by cup plate method; assay type: functional; details: MTCC 1688, 24 h, read-out: IZ

Row | SMILES | zone of inhibition at 1000 µg/mL
5 | Nc1n[nH]c2c1C(c1c(-c3ccccc3)[nH]c3ccc(Cl)cc13)C=C(c1ccccc1)O2 (stereo not given) | 13 mm
6 | Cc1ccc(C2=CC(c3c(-c4ccccc4)[nH]c4ccc(Cl)cc34)C(C#N)=C(N)O2)cc1 (stereo not given) | 3 mm

test system: Pseudomonas aeruginosa; assay: Antimicrobial activity against Pseudomonas aeruginosa MTCC 1688 at 500 ug/ml after 24 hrs by cup plate method; assay type: functional; details: MTCC 1688, 24 h, read-out: IZ

Row | SMILES | zone of inhibition at 500 µg/mL
7 | Nc1n[nH]c2c1C(c1c(-c3ccccc3)[nH]c3ccc(Cl)cc13)C=C(c1ccccc1)O2 (stereo not given) | 12 mm
8 | Cc1ccc(C2=CC(c3c(-c4ccccc4)[nH]c4ccc(Cl)cc34)C(C#N)=C(N)O2)cc1 (stereo not given) | 6 mm

test system: not listed separately; assay: Antioxidant activity assessed as metal chelating activity by measuring inhibition of ferrozine-Fe2+ complex formation at 25 to 100 ug/ml; assay type: functional; details: not given

Row | SMILES | Activity
9 | Nc1n[nH]c2c1C(c1c(-c3ccccc3)[nH]c3ccc(Cl)cc13)C=C(c1ccccc1)O2 (stereo not given) | Active
10 | Cc1ccc(C2=CC(c3c(-c4ccccc4)[nH]c4ccc(Cl)cc34)C(C#N)=C(N)O2)cc1 (stereo not given) | Active

test system: Pseudomonas aeruginosa; assay: Antimicrobial activity against Pseudomonas aeruginosa MTCC 1688 at 750 ug/ml after 24 hrs by cup plate method; assay type: functional; details: MTCC 1688, 24 h, read-out: IZ

Row | SMILES | zone of inhibition at 750 µg/mL
11 | Nc1n[nH]c2c1C(c1c(-c3ccccc3)[nH]c3ccc(Cl)cc13)C=C(c1ccccc1)O2 (stereo not given) | 12 mm
12 | Cc1ccc(C2=CC(c3c(-c4ccccc4)[nH]c4ccc(Cl)cc34)C(C#N)=C(N)O2)cc1 (stereo not given) | 6 mm

test system: Aspergillus flavus; assay: Antimicrobial activity against Aspergillus flavus MTCC 1973 at 750 ug/ml after 72 hrs by cup plate method; assay type: functional; details: MTCC 1973, 72 h, read-out: IZ

Row | SMILES | zone of inhibition at 750 µg/mL
13 | Nc1n[nH]c2c1C(c1c(-c3ccccc3)[nH]c3ccc(Cl)cc13)C=C(c1ccccc1)O2 (stereo not given) | 12 mm
14 | Cc1ccc(C2=CC(c3c(-c4ccccc4)[nH]c4ccc(Cl)cc34)C(C#N)=C(N)O2)cc1 (stereo not given) | 5 mm

test system: Staphylococcus aureus; assay: Antimicrobial activity against Staphylococcus aureus ATCC 29513 at 1000 ug/ml after 24 hrs by cup plate method; assay type: functional; details: ATCC 29513, 24 h, read-out: IZ

Row | SMILES | zone of inhibition at 1000 µg/mL
15 | Nc1n[nH]c2c1C(c1c(-c3ccccc3)[nH]c3ccc(Cl)cc13)C=C(c1ccccc1)O2 (stereo not given) | 8 mm
16 | Cc1ccc(C2=CC(c3c(-c4ccccc4)[nH]c4ccc(Cl)cc34)C(C#N)=C(N)O2)cc1 (stereo not given) | 6 mm

test system: Escherichia coli; assay: Antimicrobial activity against Escherichia coli MTCC 723 at 500 ug/ml after 24 hrs by cup plate method; assay type: functional; details: MTCC 723, 24 h, read-out: IZ

Row | SMILES | zone of inhibition at 500 µg/mL
17 | Nc1n[nH]c2c1C(c1c(-c3ccccc3)[nH]c3ccc(Cl)cc13)C=C(c1ccccc1)O2 (stereo not given) | 7 mm
18 | Cc1ccc(C2=CC(c3c(-c4ccccc4)[nH]c4ccc(Cl)cc34)C(C#N)=C(N)O2)cc1 (stereo not given) | 10 mm

test system: Aspergillus niger; assay: Antimicrobial activity against Aspergillus niger MTCC 281 at 750 ug/ml after 72 hrs by cup plate method; assay type: functional; details: MTCC 281, 72 h, read-out: IZ

Row | SMILES | zone of inhibition at 750 µg/mL
19 | Nc1n[nH]c2c1C(c1c(-c3ccccc3)[nH]c3ccc(Cl)cc13)C=C(c1ccccc1)O2 (stereo not given) | 5 mm
20 | Cc1ccc(C2=CC(c3c(-c4ccccc4)[nH]c4ccc(Cl)cc34)C(C#N)=C(N)O2)cc1 (stereo not given) | 3 mm

test system: Escherichia coli; assay: Antimicrobial activity against Escherichia coli MTCC 723 at 750 ug/ml after 24 hrs by cup plate method; assay type: functional; details: MTCC 723, 24 h, read-out: IZ

Row | SMILES | zone of inhibition at 750 µg/mL
21 | Nc1n[nH]c2c1C(c1c(-c3ccccc3)[nH]c3ccc(Cl)cc13)C=C(c1ccccc1)O2 (stereo not given) | 7 mm
22 | Cc1ccc(C2=CC(c3c(-c4ccccc4)[nH]c4ccc(Cl)cc34)C(C#N)=C(N)O2)cc1 (stereo not given) | 10 mm

test system: Aspergillus oryzae; assay: Antimicrobial activity against Aspergillus oryzae MTCC 3567 at 1000 ug/ml after 72 hrs by cup plate method; assay type: functional; details: MTCC 3567, 72 h, read-out: IZ

Row | SMILES | zone of inhibition at 1000 µg/mL
23 | Nc1n[nH]c2c1C(c1c(-c3ccccc3)[nH]c3ccc(Cl)cc13)C=C(c1ccccc1)O2 (stereo not given) | 12 mm
24 | Cc1ccc(C2=CC(c3c(-c4ccccc4)[nH]c4ccc(Cl)cc34)C(C#N)=C(N)O2)cc1 (stereo not given) | 2 mm

test system: Aspergillus terreus; assay: Antimicrobial activity against Aspergillus terreus MTCC 1782 at 750 ug/ml after 72 hrs by cup plate method; assay type: functional; details: MTCC 1782, 72 h, read-out: IZ

Row | SMILES | zone of inhibition at 750 µg/mL
25 | Nc1n[nH]c2c1C(c1c(-c3ccccc3)[nH]c3ccc(Cl)cc13)C=C(c1ccccc1)O2 (stereo not given) | 3 mm
26 | Cc1ccc(C2=CC(c3c(-c4ccccc4)[nH]c4ccc(Cl)cc34)C(C#N)=C(N)O2)cc1 (stereo not given) | 3 mm

test system: Klebsiella pneumoniae; assay: Antimicrobial activity against Klebsiella pneumoniae NCTC 13368 at 1000 ug/ml after 24 hrs by cup plate method; assay type: functional; details: NCTC 13368, 24 h, read-out: IZ

Row | SMILES | zone of inhibition at 1000 µg/mL
27 | Nc1n[nH]c2c1C(c1c(-c3ccccc3)[nH]c3ccc(Cl)cc13)C=C(c1ccccc1)O2 (stereo not given) | 5 mm
28 | Cc1ccc(C2=CC(c3c(-c4ccccc4)[nH]c4ccc(Cl)cc34)C(C#N)=C(N)O2)cc1 (stereo not given) | 10 mm

test system: Klebsiella pneumoniae; assay: Antimicrobial activity against Klebsiella pneumoniae NCTC 13368 at 500 ug/ml after 24 hrs by cup plate method; assay type: functional; details: NCTC 13368, 24 h, read-out: IZ

Row | SMILES | zone of inhibition at 500 µg/mL
29 | Nc1n[nH]c2c1C(c1c(-c3ccccc3)[nH]c3ccc(Cl)cc13)C=C(c1ccccc1)O2 (stereo not given) | 6 mm
30 | Cc1ccc(C2=CC(c3c(-c4ccccc4)[nH]c4ccc(Cl)cc34)C(C#N)=C(N)O2)cc1 (stereo not given) | 10 mm

test system: Aspergillus flavus; assay: Antimicrobial activity against Aspergillus flavus MTCC 1973 at 1000 ug/ml after 72 hrs by cup plate method; assay type: functional; details: MTCC 1973, 72 h, read-out: IZ

Row | SMILES | zone of inhibition at 1000 µg/mL
31 | Nc1n[nH]c2c1C(c1c(-c3ccccc3)[nH]c3ccc(Cl)cc13)C=C(c1ccccc1)O2 (stereo not given) | 9 mm
32 | Cc1ccc(C2=CC(c3c(-c4ccccc4)[nH]c4ccc(Cl)cc34)C(C#N)=C(N)O2)cc1 (stereo not given) | 5 mm

test system: Aspergillus terreus; assay: Antimicrobial activity against Aspergillus terreus MTCC 1782 at 1000 ug/ml after 72 hrs by cup plate method; assay type: functional; details: MTCC 1782, 72 h, read-out: IZ

Row | SMILES | zone of inhibition at 1000 µg/mL
33 | Nc1n[nH]c2c1C(c1c(-c3ccccc3)[nH]c3ccc(Cl)cc13)C=C(c1ccccc1)O2 (stereo not given) | 3 mm
34 | Cc1ccc(C2=CC(c3c(-c4ccccc4)[nH]c4ccc(Cl)cc34)C(C#N)=C(N)O2)cc1 (stereo not given) | 3 mm

test system: Klebsiella pneumoniae; assay: Antimicrobial activity against Klebsiella pneumoniae NCTC 13368 at 750 ug/ml after 24 hrs by cup plate method; assay type: functional; details: NCTC 13368, 24 h, read-out: IZ

Row | SMILES | zone of inhibition at 750 µg/mL
35 | Nc1n[nH]c2c1C(c1c(-c3ccccc3)[nH]c3ccc(Cl)cc13)C=C(c1ccccc1)O2 (stereo not given) | 5 mm
36 | Cc1ccc(C2=CC(c3c(-c4ccccc4)[nH]c4ccc(Cl)cc34)C(C#N)=C(N)O2)cc1 (stereo not given) | 10 mm

test system: Aspergillus terreus; assay: Antimicrobial activity against Aspergillus terreus MTCC 1782 at 500 ug/ml after 72 hrs by cup plate method; assay type: functional; details: MTCC 1782, 72 h, read-out: IZ

Row | SMILES | zone of inhibition at 500 µg/mL
37 | Nc1n[nH]c2c1C(c1c(-c3ccccc3)[nH]c3ccc(Cl)cc13)C=C(c1ccccc1)O2 (stereo not given) | 2 mm
38 | Cc1ccc(C2=CC(c3c(-c4ccccc4)[nH]c4ccc(Cl)cc34)C(C#N)=C(N)O2)cc1 (stereo not given) | 5 mm

test system: Aspergillus niger; assay: Antimicrobial activity against Aspergillus niger MTCC 281 at 500 ug/ml after 72 hrs by cup plate method; assay type: functional; details: MTCC 281, 72 h, read-out: IZ

Row | SMILES | zone of inhibition at 500 µg/mL
39 | Nc1n[nH]c2c1C(c1c(-c3ccccc3)[nH]c3ccc(Cl)cc13)C=C(c1ccccc1)O2 (stereo not given) | 6 mm
40 | Cc1ccc(C2=CC(c3c(-c4ccccc4)[nH]c4ccc(Cl)cc34)C(C#N)=C(N)O2)cc1 (stereo not given) | 4 mm

test system: Staphylococcus aureus; assay: Antimicrobial activity against Staphylococcus aureus ATCC 29513 at 500 ug/ml after 24 hrs by cup plate method; assay type: functional; details: ATCC 29513, 24 h, read-out: IZ

Row | SMILES | zone of inhibition at 500 µg/mL
41 | Nc1n[nH]c2c1C(c1c(-c3ccccc3)[nH]c3ccc(Cl)cc13)C=C(c1ccccc1)O2 (stereo not given) | 10 mm
42 | Cc1ccc(C2=CC(c3c(-c4ccccc4)[nH]c4ccc(Cl)cc34)C(C#N)=C(N)O2)cc1 (stereo not given) | 8 mm

test system: Aspergillus oryzae; assay: Antimicrobial activity against Aspergillus oryzae MTCC 3567 at 750 ug/ml after 72 hrs by cup plate method; assay type: functional; details: MTCC 3567, 72 h, read-out: IZ

Row | SMILES | zone of inhibition at 750 µg/mL
43 | Nc1n[nH]c2c1C(c1c(-c3ccccc3)[nH]c3ccc(Cl)cc13)C=C(c1ccccc1)O2 (stereo not given) | 12 mm
44 | Cc1ccc(C2=CC(c3c(-c4ccccc4)[nH]c4ccc(Cl)cc34)C(C#N)=C(N)O2)cc1 (stereo not given) | 8 mm

test system: Aspergillus niger; assay: Antimicrobial activity against Aspergillus niger MTCC 281 at 1000 ug/ml after 72 hrs by cup plate method; assay type: functional; details: MTCC 281, 72 h, read-out: IZ

Row | SMILES | zone of inhibition at 1000 µg/mL
45 | Nc1n[nH]c2c1C(c1c(-c3ccccc3)[nH]c3ccc(Cl)cc13)C=C(c1ccccc1)O2 (stereo not given) | 5 mm
46 | Cc1ccc(C2=CC(c3c(-c4ccccc4)[nH]c4ccc(Cl)cc34)C(C#N)=C(N)O2)cc1 (stereo not given) | 3 mm

test system: Aspergillus flavus; assay: Antimicrobial activity against Aspergillus flavus MTCC 1973 at 500 ug/ml after 72 hrs by cup plate method; assay type: functional; details: MTCC 1973, 72 h, read-out: IZ

Row | SMILES | zone of inhibition at 500 µg/mL
47 | Nc1n[nH]c2c1C(c1c(-c3ccccc3)[nH]c3ccc(Cl)cc13)C=C(c1ccccc1)O2 (stereo not given) | 12 mm
48 | Cc1ccc(C2=CC(c3c(-c4ccccc4)[nH]c4ccc(Cl)cc34)C(C#N)=C(N)O2)cc1 (stereo not given) | 5 mm

test system: Aspergillus oryzae; assay: Antimicrobial activity against Aspergillus oryzae MTCC 3567 at 500 ug/ml after 72 hrs by cup plate method; assay type: functional; details: MTCC 3567, 72 h, read-out: IZ

Row | SMILES | zone of inhibition at 500 µg/mL
49 | Nc1n[nH]c2c1C(c1c(-c3ccccc3)[nH]c3ccc(Cl)cc13)C=C(c1ccccc1)O2 (stereo not given) | 12 mm
50 | Cc1ccc(C2=CC(c3c(-c4ccccc4)[nH]c4ccc(Cl)cc34)C(C#N)=C(N)O2)cc1 (stereo not given) | 8 mm
